Laboratory results as given in patent publication US20220370416A1, “COMPOUNDS AND METHODS FOR TARGETED DEGRADATION OF KRAS” (Arvinas Operations, Inc., priority 2020, published 2022).

Tests used:
HiBit-KRAS^G12C [1] = target: T1, HiBit-KRAS^G12C (Homo sapiens, UniProt P01116, G12C); assay: HiBit degradation assay in SW1573 HiBit-KRas^G12C cells; assay type: cell-based; parameters: expressed in transfected cells; host or cells: SW1573 (clone E6), modified pcDNA3.1 vector, TK promoter; conditions: 24 hours
T1 sequence (P01116 1-186 isoform P01116-2 G12C limits assumed): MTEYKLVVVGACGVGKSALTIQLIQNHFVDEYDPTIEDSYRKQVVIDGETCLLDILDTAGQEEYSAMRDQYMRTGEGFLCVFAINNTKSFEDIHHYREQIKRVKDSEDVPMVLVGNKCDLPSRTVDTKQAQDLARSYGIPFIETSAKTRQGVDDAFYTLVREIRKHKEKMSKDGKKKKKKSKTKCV
Outline: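 SW1573 cells stably expressing N-terminally HiBit-tagged KRAS G12C, under the TK promoter, were treated 24 h at 37 °C with 10 μM to 20 nM compound in 0.1% or 0.5% DMSO. Residual HiBit luminescence normalised to DMSO and fitted with a 4-parameter model for DC50 and Dmax. Points with ≥50% viability loss (alamar blue) excluded.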

HiBit-KRAS^G12C [2] = target: T1, HiBit-KRAS^G12C; assay: HiBit degradation assay in MiaPaCa-2 HiBit-KRas^G12C cells; assay type: cell-based; conditions: 24 hours
Outline: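 MiaPaCa-2 cells with CRISPR N-terminal HiBit knock-in on one endogenous KRAS^G12C allele, treated 24 hours at 37° C with compound titrated 10 μM to 20 nM (0.1% or 0.5% DMSO). Lytic HiBit luminescence normalized to DMSO, 4-parameter fit giving DC50 and Dmax; points cytotoxic to […] cells by alamar blue excluded.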

[3] = read-out: KRas^G12C-HiBiT (SW1573; 0.5% DMSO) IC50***, SW1573 HiBit-KRas^G12C, 0.5% DMSO
[4] = read-out: KRas^G12C-HiBiT (MiaPaCa; 0.5% DMSO) IC50, MiaPaCa-2 HiBit-KRas^G12C cells, 0.5% DMSO
[5] = SW1573, SW1573 HiBit-KRas^G12C, 0.1% DMSO, read-out: KRas^G12C-HiBit (SW1573; 0.1% DMSO) Dmax**
[6] = SW1573, SW1573 HiBit-KRas^G12C, 0.5% DMSO, read-out: KRas^G12C-HiBiT (SW1573; 0.5% DMSO) Dmax**
[7] = SW1573 HiBit-KRas^G12C, 0.1% DMSO, read-out: KRas^G12C-HIBit (SW1573; 0.1% DMSO) DC50*
[8] = MIA PaCa-2, MiaPaCa-2 HiBit-KRas^G12C cells, 0.1% DMSO, maximum degradation, read-out: KRas^G12C-HiBiT (MiaPaCa; 0.1% DMSO) DMax
[9] = MIA PaCa-2, MiaPaCa-2 HiBit-KRas^G12C cells, 0.5% DMSO, maximum degradation, read-out: KRas^G12C-HiBiT (MiaPaCa; 0.5% DMSO) DMax
[10] = SW1573 HiBit-KRas^G12C, 0.5% DMSO

SMILES	DC50 (HiBit-KRAS^G12C [1]; [3])	DC50 (HiBit-KRAS^G12C [2]; [4])	Dmax (HiBit-KRAS^G12C [1]; [5])	Dmax (HiBit-KRAS^G12C [1]; [6])	DC50 (HiBit-KRAS^G12C [1]; [7])	Dmax (HiBit-KRAS^G12C [2]; [8])	Dmax (HiBit-KRAS^G12C [2]; [9])	also measured
C=CC(=O)N1CCN(c2nc(OCCN3CCC(OCCOCC(=O)N[C@H](C(=O)N4C[C@H](O)C[C@H]4C(=O)N[C@@H](C)c4ccc(-c5scnc5C)cc4)C(C)(C)C)CC3)nc3c(F)c(-c4cc(O)cc5ccccc45)c(Cl)cc23)C[C@@H]1CC#N [Compound 32, (2S,4R)-1-[(2S)-2-{2-[2-({1-[2-({6-chloro-4-[(3S)-3-(cyanomethyl)-4-(prop-2-enoyl)piperazin-1-yl]-8-fluoro-7-(3-hydroxynaphthalen-1-yl)quinazolin-2-yl}oxy)ethyl]piperidin-4-yl}oxy)ethoxy]acetamido}-3,3-dimethylbutanoyl]-4-hydroxy-N-[(1S)-1-[4-(4-methyl-1,3-thiazol-5-yl)phenyl]ethyl]pyrrolidine-2-carboxamide]	–	–	35 to 70%	> 70%	100 to 1000 nM	35 to 70%	> 70%	–
C=CC(=O)N1CCN(c2nc(OC[C@@H]3C[C@@H](OCCOc4cc(-c5scnc5C)ccc4CNC(=O)[C@@H]4C[C@@H](O)CN4C(=O)[C@H](c4cc(C)no4)C(C)C)CN3C)nc3c2CCN(c2cccc4ccccc24)C3)C[C@@H]1CC#N [Compound 89, (2S,4R)-N-{[2-(2-{[(3R,5S)-5-[({4-[(3S)-3-(cyanomethyl)-4-(prop-2-enoyl)piperazin-1-yl]-7-(naphthalen-1-yl)-5H,6H,7H,8H-pyrido[3,4-d]pyrimidin-2-yl}oxy)methyl]-1-methylpyrrolidin-3-yl]oxy}ethoxy)-4-(4-methyl-1,3-thiazol-5-yl)phenyl]methyl}-4-hydroxy-1-[(2S)-3-methyl-2-(3-methyl-1,2-oxazol-5-yl)butanoyl]pyrrolidine-2-carboxamide]	> 1000 nM	> 1000 nM	35 to 70%	–	100 to 1000 nM	–	–	DC50 (HiBit-KRAS^G12C [2]; read-out: KRas^G12C-HiBiT (MiaPaCa; 0.1% DMSO) IC50, MiaPaCa-2 HiBit-KRas^G12C cells, 0.1% DMSO): > 1000 nM
C=CC(=O)N1CCN(c2nc(O[C@H](C)CN3CCC(C4CCN(CC(=O)N[C@H](C(=O)N5C[C@H](O)C[C@H]5C(=O)N[C@@H](C)c5ccc(-c6scnc6C)cc5)C(C)(C)C)CC4)CC3)nc3c(F)c(-c4cc(O)cc5ccccc45)c(Cl)cc23)CC1 [Compound 50, (2S,4R)-1-[(2S)-2-(2-{1′-[(2R)-2-{[6-chloro-8-fluoro-7-(3-hydroxynaphthalen-1-yl)-4-[4-(prop-2-enoyl)piperazin-1-yl]quinazolin-2-yl]oxy}propyl]-[4,4′-bipiperidin]-1-yl}acetamido)-3,3-dimethylbutanoyl]-4-hydroxy-N-[(1S)-1-[4-(4-methyl-1,3-thiazol-5-yl)phenyl]ethyl]pyrrolidine-2-carboxamide]	–	–	–	–	> 1000 nM	–	–	Dmax (HiBit-KRAS^G12C [1]; SW1573, read-out: KRas^G12C-HiBit (SW1573; 0.1% DMSO) Dmax**, SW1573 HiBit-KRas^G12C, 0.1% DMSO): 35 to 70%; Dmax (HiBit-KRAS^G12C [2]; MIA PaCa-2, read-out: KRas^G12C-HiBiT (MiaPaCa; 0.1% DMSO) DMax, MiaPaCa-2 HiBit-KRas^G12C cells, 0.1% DMSO, maximum degradation): 35 to 70%
C=CC(=O)N1CCN(c2nc(OCCCN3CCC(OCC(=O)N[C@H](C(=O)N4C[C@H](O)C[C@H]4C(=O)N[C@@H](C)c4ccc(-c5scnc5C)cc4)C(C)(C)C)CC3)nc3c(F)c(-c4cc(O)cc5ccccc45)c(Cl)cc23)CC1 [Compound 25, (2S,4R)-1-[(2S)-2-(2-{[1-(3-{[6-chloro-8-fluoro-7-(3-hydroxynaphthalen-1-yl)-4-[4-(prop-2-enoyl)piperazin-1-yl]quinazolin-2-yl]oxy}propyl)piperidin-4-yl]oxy}acetamido)-3,3-dimethylbutanoyl]-4-hydroxy-N-[(1S)-1-[4-(4-methyl-1,3-thiazol-5-yl)phenyl]ethyl]pyrrolidine-2-carboxamide]	–	–	35 to 70%	–	100 to 1000 nM	< 35%	–	–

Continued, in another order:

DC50 (HiBit-KRAS^G12C [1]; [3])	DC50 (HiBit-KRAS^G12C [2]; [4])	Dmax (HiBit-KRAS^G12C [1]; [5])	Dmax (HiBit-KRAS^G12C [1]; [6])	DC50 (HiBit-KRAS^G12C [1]; [7])	Dmax (HiBit-KRAS^G12C [2]; [8])	Dmax (HiBit-KRAS^G12C [2]; [9])	SMILES	also measured
> 1000 nM	> 1000 nM	–	–	–	–	–	C=CC(=O)N1CCN(c2nc(OCCN3CCC(COc4cc([C@@H](C(=O)N5C[C@H](O)C[C@H]5C(=O)N[C@@H](C)c5ccc(-c6ccnn6C)cc5)C(C)C)on4)CC3)nc3c(F)c(-c4cc(O)cc5ccccc45)c(Cl)cc23)C[C@@H]1CC#N [Compound 159, (2S,4R)-1-[(2S)-2-[3-({1-[2-({6-chloro-4-[(3S)-3-(cyanomethyl)-4-(prop-2-enoyl)piperazin-1-yl]-8-fluoro-7-(3-hydroxynaphthalen-1-yl)quinazolin-2-yl}oxy)ethyl]piperidin-4-yl}methoxy)-1,2-oxazol-5-yl]-3-methylbutanoyl]-4-hydroxy-N-[(1S)-1-[4-(1-methyl-1H-pyrazol-5-yl)phenyl]ethyl]pyrrolidine-2-carboxamide]	–
100 to 1000 nM	> 1000 nM	–	< 35%	–	–	–	C=CC(=O)N1CCN(c2nc(OCCN3CCC(CN(C)c4cc([C@@H](C(=O)N5C[C@H](O)C[C@H]5C(=O)N[C@@H](C)c5ccc(-c6scnc6C)cc5)C(C)C)on4)CC3)nc3c(F)c(-c4cc(O)cc5ccccc45)c(Cl)cc23)C[C@@H]1CC#N [Compound 144, (2S,4R)-1-[(2S)-2-{3-[({1-[2-({6-chloro-4-[(3S)-3-(cyanomethyl)-4-(prop-2-enoyl)piperazin-1-yl]-8-fluoro-7-(3-hydroxynaphthalen-1-yl)quinazolin-2-yl}oxy)ethyl]piperidin-4-yl}methyl)(methyl)amino]-1,2-oxazol-5-yl}-3-methylbutanoyl]-4-hydroxy-N-[(1S)-1-[4-(4-methyl-1,3-thiazol-5-yl)phenyl]ethyl]pyrrolidine-2-carboxamide]	–
< 100 nM	< 100 nM	–	–	–	–	> 70%	C=C(F)C(=O)N1CCN(c2nc(OCCN3CCC(COc4cc([C@H](C(=O)N5C[C@H](O)C[C@H]5C(=O)N[C@@H](C)c5ccc(-c6scnc6C)cc5)C(C)C)on4)CC3)nc3c(F)c(-c4cc(O)cc5ccccc45)c(Cl)cc23)C[C@@H]1CC#N (atropisomer, axis not shown) [Compound 167, (2S,4R)-1-[(2R)-2-[3-({1-[2-({6-chloro-4-[(3S)-3-(cyanomethyl)-4-(2-fluoroprop-2-enoyl)piperazin-1-yl]-8-fluoro-7-(3-hydroxynaphthalen-1-yl)quinazolin-2-yl}oxy)ethyl]piperidin-4-yl}methoxy)-1,2-oxazol-5-yl]-3-methylbutanoyl]-4-hydroxy-N-[(1S)-1-[4-(4-methyl-1,3-thiazol-5-yl)phenyl]ethyl]pyrrolidine-2-carboxamide]	KRas^G12C-HiBiT (SW1573; 0.5% DMSO) Dmax** (HiBit-KRAS^G12C [1]; [10]): A (A ≥ 70)
100 to 1000 nM	100 to 1000 nM	–	> 70%	–	–	> 70%	C=C(F)C(=O)N1CCN(c2nc(OCCN3CCC(COCC(=O)N[C@H](C(=O)N4C[C@H](O)C[C@H]4C(=O)N[C@@H](C)c4ccc(-c5ccnn5C)cc4)C(C)(C)C)CC3)nc3c(F)c(-c4cc(O)cc5ccccc45)c(Cl)cc23)C[C@@H]1CC#N (atropisomer, axis not shown) [Compound 129, (2S,4R)-1-[(2S)-2-[2-({1-[2-({6-chloro-4-[(3S)-3-(cyanomethyl)-4-(2-fluoroprop-2-enoyl)piperazin-1-yl]-8-fluoro-7-(3-hydroxynaphthalen-1-yl)quinazolin-2-yl}oxy)ethyl]piperidin-4-yl}methoxy)acetamido]-3,3-dimethylbutanoyl]-4-hydroxy-N-[(1S)-1-[4-(1-methyl-1H-pyrazol-5-yl)phenyl]ethyl]pyrrolidine-2-carboxamide]	–
–	–	35 to 70%	–	100 to 1000 nM	> 70%	–	C=CC(=O)N1CCN(c2nc(OCCN3CCC(COCC(=O)N[C@H](C(=O)N4C[C@H](O)C[C@H]4C(=O)N[C@@H](C)c4ccc(-c5scnc5C)cc4)C(C)(C)C)CC3)nc3c(F)c(-c4cc(O)cc5ccccc45)c(Cl)cc23)C[C@@H]1CC#N [Compound 17, (2S,4R)-1-[(2S)-2-[2-({1-[2-({6-chloro-4-[(3S)-3-(cyanomethyl)-4-(prop-2-enoyl)piperazin-1-yl]-8-fluoro-7-(3-hydroxynaphthalen-1-yl)quinazolin-2-yl}oxy)ethyl]piperidin-4-yl}methoxy)acetamido]-3,3-dimethylbutanoyl]-4-hydroxy-N-[(1S)-1-[4-(4-methyl-1,3-thiazol-5-yl)phenyl]ethyl]pyrrolidine-2-carboxamide]	KRas^G12C-HiBiT (SW1573; 0.5% DMSO) Dmax** (HiBit-KRAS^G12C [1]; [10]): A (A ≥ 70); KRas^G12C-HiBiT (MiaPaCa; 0.5% DMSO) DMax (HiBit-KRAS^G12C [2]; MiaPaCa-2 HiBit-KRas^G12C cells, 0.5% DMSO, maximum degradation): A (A ≥ 70)
